Data as given in patent US4968686A, “Acyclic pyrrolo [2,3-d]pyrimidine analogs as antiviral agents” (The Regents of The University of Michigan, priority 1989, dated 1990).
Where two headings read alike, the source gives them in different places.

How the values were obtained:
HCMV [1] = test: HCMV titer (yield) reduction assay; format: cell-based; details: Human betaherpesvirus 5; for IC90: Table 1, I90, HFF cells, read-out: HCMV Yield, 90% inhibitory concentration (I90)
Source text: (§1) The 148 strain of HSV-1 was used in most experiments and was provided by Dr. T. W. Schafer of Schering corporation. The HF strain of HSV-1 was used in selected experiments and was obtained from Dr. G. H. Cohen, University of Pennsylvania. The Towne strain, plaque-purified isolate Po, of HCMV was a gift of Dr. Mark Stinski, University of Iowa.
(§2) HCMV was titered in 24-well cluster dishes which were planted to contain 5×10^4 cells/well, grown as described above. When the cells were 70 to 80% confluent, 0.2 ml of the virus suspension was added per wall and adsorbed as described above. At least three ten-fold dilutions of each preparation were used. Following virus adsorption, the cell sheets were overlayed with 0.5% methocel (4000 CPS) in maintenance medium [MEM(E) with 1.1 gm/liter NaHCO3, 100 units/ml penicillin G, 100 μg/ml streptomycin, and 5% fetal bovine serum]. The cultures were incubated in a humidified atmosphere of 4% CO2 -96% air. Viral foci were visible 5 to 7 days after infection using at least 10-fold magnification. Cells were fixed and stained by a 10-minute exposure to a 0.1% solution of crystal violet in 20% methanol 7 to 12 days after infection. Microscopic foci were enumerated at 20-fold magnification using a Nikon Profile Projector.
(§3) For titer reduction analysis, HFF cells were planted as described above in 24-well cluster dishes or in 25 cm^2 flasks. When monolayers were approximately 70% confluent, HCMV was added at a m.o.i. of 0.5 p.f.u. per cell and adsorbed as detailed above. Compounds dissolved in growth medium were added in one or one-half logarithm10 dilutions and incubation continued at 37° C. After 7 to 10 days of incubation, culture dishes or flasks were frozen at […] For titer determination, cells were thawed and then subjected to two more cycles of freezing and thawing at 37° C. Serial, one-logarithm10 dilutions of the final suspension were prepared and inoculated onto new cultures of HFF cells. Titer determination was as detailed above in part (1) (b).
(§4) Dose-response relationships were used to compare drug effects. These were constructed by linearly regressing the percent inhibition of parameters derived in the preceding sections against log drug concentrations. The 50% inhibitory (I50) concentrations were calculated from the regression lines using the methods described by Goldstein. See Goldstein, A., Biostatistics: An Introductory Text, MacMillan, N.Y., 1964, pp. 156-161. Along with the I50 concentration for visual cytotoxicity, the averaged I50 concentrations are compared to I50 concentrations for inhibition for HCMV or HSV-1 replication. Compounds for which the ratio of cytotoxicity I50 concentrations to antiviral I50 concentrations (in vitro therapeutic index) were greater than 10, were considered for further study.

HSV-1 [2] = test: HSV-1 plaque reduction assay, strain S148; format: cell-based, herpes simplex virus type 1 (strain S148) in BSC-1 cells; details: for IC50: Human alphaherpesvirus 1, Table 1, strain S148, BSC-1 cells, read-out: 50% Inhibitory Concentration HSV-1 Plaque
Source text: as §1
(§5) HSV-1 was titered using monolayer cultures of BSC-1 cells. Cells were planted at 3×10^5 cells/well using 6-well cluster dishes. MEM(E) supplemented with 10% fetal bovine serum was employed as medium. After 22-24 hours, cells were 90% confluent and were inoculated in triplicate using at least three ten-fold dilutions with 0.2 ml of the virus suspension to be assayed and incubated in a humidified 4% CO2 […] atmosphere for one hour to permit viral adsorption. Following virus adsorption, the cell sheet was overlayed with 5 ml of MEM(E) with 5% serum plus 0.5% methocel (4000 CPS) and incubated an additional two to three days. Cells were fixed and stained with 0.1% crystal violet in 20% methanol and macroscopic plaques enumerated.
(§6) Plaque reduction experiments were HSV-1 were performed using monolayer cultures of BSC-1 cells. The assay was performed exactly as described above except that the 0.2 ml virus suspension contained approximately 100 p.f.u. of HSV-1. Compounds to be tested were dissolved in the overlay medium at concentrations usually ranging from 0.1 to 100 μM in half-or-one logarithm10 dilutions. Titer reduction assays were performed by planting KB cells in 25 cm^2 plastic tissue culture flasks 10 to 24 hours prior to infection. At the onset of experiments, logarithmically growing replicate monolayer cultures were 60 to 80% confluent and contained 2.5 to 4.5×10^6 cells/flask. Medium was decanted and the cultures were infected with 2 to 10 p.f.u. of HSV-1 per cell. Virus was contained in 1.0 ml of VGM supplemented with 5% fetal bovine serum. After a 1 hour adsorption period at […], the cell sheet was rinsed twice with 2 ml of VGM without serum to remove unadsorbed virus and 5 ml of VGM containing drugs at three to five selected concentrations added in duplicate. Following an 18- to 22-hour incubation at 37° C., infected monolayers were treated with EDTA-trypsin to suspend the cells; aliquots were removed, subjected to three cycles of freezing and thawing, and stored at -76° C. for subsequent virus assay. Virus was titered on BSC-1 cells as described above.
as §4

HSV-1 [3] = test: HSV-1 titer (yield) reduction assay; format: cell-based, herpes simplex virus type 1 in KB cells; details: read-out: HSV-1 Yield, 90% inhibitory concentration (I90)
Source text: as §1, §5, §6
Drug effects were calculated as a percentage of the reduction in virus titers in the presence of each drug concentration compared to the titer obtained in the absence of drug. Acylovir was used as a positive control in all experiments.
as §4

HCMV [4] = test: HCMV titer, plaque or yield reduction; format: cell-based, human cytomegalovirus (Towne strain) in HFF cells
Source text: as §1, §2
The effect of compounds of the replication of HCMV has been measured using both a plaque (focus) reduction assay and a titer (yield) reduction assay. For the former, HFF cells in 24-well culture dishes were infected with approximately 50 p.f.u. of HCMV per well using the procedures detailed above. Compounds dissolved in growth medium were added in three to six selected concentrations to triplicate wells following virus adsorption. Following incubation at 37° C. for 7 to 10 days, cell sheets were fixed, stained and microscopic foci were enumerated as described above. Drug effects were calculated as a percentage of reduction in number of foci in the presence of each drug concentration compared to the number observed in the absence of drug. DHPG (ganciclovir) was used as a positive control in all experiments.
as §3, §4

[5] = Human alphaherpesvirus 1, Table 1, I90, strain S148, KB cells
[6] = Human betaherpesvirus 5, Table 2, read-out: HCMV Titer, Plaque or Yield Reduction, 50% Inhibitory Concentration

Structure (SMILES) | IC90 (HCMV [1]) [µM] | IC50 (HSV-1 [2]) [µM] | IC90 (HSV-1 [3]; [5]) [µM] | activity against HCMV (in words) (HCMV [4]) | IC50 (HCMV [4]; [6]) [µM] | IC90 (HSV-1 [3]; Human alphaherpesvirus 1, KB) [µM] | activity against HSV-1 (in words) (HSV-1 [2]) | IC50 (HCMV [4]; Human betaherpesvirus 5, read-out: HCMV Titer, Plaque or Yield Reduction, 50% Inhibitory Concentration) [µM] | log reduction at 10 µM (HCMV [1]; FIG. 2, 10 μM) | log reduction at 100 µM (HCMV [1]; FIG. 2, 10-fold higher concentration than UMJD 183 (10 μM))
Nc1nc2c(ncn2COCCO)c(=O)[nH]1 [Acyclovir, reference compound] | 90 | 4 | 7 | only modest activity | 63 | – | – | – | – | –
Nc1nc(O)c2ncn(COC(CO)CO)c2n1 [Ganciclovir (DHPG), reference compound] | 1.8 | 4.5 | – | – | 8.8 | 1.2 | – | – | – | –
Nc1ncnc2c1c(Cl)cn2COCCO [UMJD 100, 4-Amino-5-chloro-7-(2-hydroxyethoxymethyl)pyrrolo[2,3-d]-pyrimidine] | 46 | 77 | 50 | active | 16 | – | less potent activity | – | – | –
Nc1ncnc2c1c(Br)cn2COCCO [UMJD 102, 4-Amino-5-bromo-7-(2-hydroxyethoxymethyl)pyrrolo[2,3-d]-pyrimidine] | 13 | 11 | 30 | active | – | – | less potent activity | 3.9 | – | –
Nc1ncnc2c1c(I)cn2COCCO [UMJD 104, 4-Amino-5-iodo-7-(2-hydroxyethoxymethyl)pyrrolo[2,3-d]-pyrimidine] | 14 | 250 | > 100 | active | 24 | – | less potent activity | – | – | –
Nc1ncnc2c1c(Br)cn2COC(CO)CO [UMJD 183, 4-amino-5-bromo-7-[(1,3-dihydroxy-2-propoxy)methyl]-pyrrolo[2,3-d]pyrimidine] | 1.9 | 2 | 17 | most active | – | – | – | – | ~5 | –
Nc1ncnc2c1c(Cl)cn2COC(CO)CO [UMJD 186, 4-amino-5-chloro-7-[(1,3-dihydroxy-2-propoxy)-methyl]pyrrolo[2,3-d]pyrimidine] | 8 | 16 | 3.5 | – | – | – | – | – | – | 5
OCC(CO)OCn1cc(Br)c2c(NO)ncnc21 [UMJD 299, 4-hydroxylamino-5-bromo-7-[(1,3-dihydroxy-2-propoxy)methyl]pyrrolo[2,3-d]pyrimidine] | 10 | 2.9 | > 100 | active and nearly as potent as the 4-amino analogs | – | – | – | – | – | –
